Test results as given in US20060247223A1, “Non-imidazole alkylamines as histamine H3- receptor ligands and their therapeutic applications” (priority 1998, published 2006).
Read-outs that look alike come from different tables or passages of the source.

Experiments:
H3 receptor [1] = biological target: T1, H3 receptor (Mus musculus, UniProt P58406); experiment: tele-methylhistamine level variations in the brain of mice after p.o. administration; type: in vivo; conditions: for ED50 (mg/kg/p.o.): tele-methylhistamine level in brain, dose for half maximal effect
T1 construct: estimated in vivo by the measurement of the tele-methylhistamine level variations in the brain of mice; from tissue; host or cells: mouse brain, in vivo after p.o. administration
From the text: At various time after p.o. administration of the. compounds, the effect of agonists and antagonists are evidenced by the decrease and increase respectively in telemethylhistamine level induced.
The changes are compared to those induced by reference compounds given in high dosage and this allows the calculation of the ED50 value for each compound which correspond to the dose responsible for an half maximal effect.

H3 receptor [2] = biological target: T2, H3 receptor (Rattus norvegicus, UniProt Q9QYN8); experiment: release of neosynthesized tritiated histamine from rat cerebral cortex synaptosomes; type: biochemical
T2 construct: release of neosynthesized tritiated histamine from rat cerebral cortex synaptosomes; from tissue; host or cells: rat cerebral cortex synaptosomes

H3 receptor [3] = biological target: T3, H3 receptor (Cavia porcellus, UniProt Q9JI35); experiment: guinea-pig ileum longitudinal muscle strips, electrically stimulated contraction, (R)α-methylhistamine curves with antagonist; type: biochemical; conditions: against (R)α-methylhistamine, 1 μM mepyramine present, read-out: H3-receptor antagonist activity pA2 (guinea-pig ileum) (converted)
T3 construct: longitudinal muscle strips from guinea-pig small intestine were dissected out; from tissue; host or cells: guinea-pig small intestine longitudinal muscle strips
Experimental: Briefly, longitudinal muscle strips from guinea-pig small intestine were dissected out and incubated in a gassed O2/CO2 (95%/5%) modified Krebs-Ringer's bicarbonate medium at +37° C. in presence of 1 μM mepyramine to block the H1 receptor. After equilibration, contractile activity under stimulation (rectangular pulses of 15 V, 0.5 msec, 0.1 Hz) was recorded. Concentration-response curves of the effect of (R)α-Methylhistamine alone or together with the antagonist were established.

[4] = H3 receptor, rat cerebral cortex synaptosomes, reversal of (R)α-methylhistamine inhibition of tritiated histamine release, read-out: Ki

T2 sequence (Q9QYN8 whole entry): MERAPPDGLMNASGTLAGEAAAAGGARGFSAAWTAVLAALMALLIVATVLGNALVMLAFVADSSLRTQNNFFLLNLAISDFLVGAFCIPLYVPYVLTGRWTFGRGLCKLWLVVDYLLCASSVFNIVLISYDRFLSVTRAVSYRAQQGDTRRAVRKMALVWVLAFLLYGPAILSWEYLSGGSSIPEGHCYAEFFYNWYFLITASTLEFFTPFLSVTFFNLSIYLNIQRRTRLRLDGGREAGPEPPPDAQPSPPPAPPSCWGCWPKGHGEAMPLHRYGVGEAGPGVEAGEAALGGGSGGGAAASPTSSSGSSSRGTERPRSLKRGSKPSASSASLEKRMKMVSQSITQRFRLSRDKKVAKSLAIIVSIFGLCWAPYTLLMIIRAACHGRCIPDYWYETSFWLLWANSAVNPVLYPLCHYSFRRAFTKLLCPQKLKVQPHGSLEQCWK
T1 sequence (P58406 whole entry): as the sequence (Q9QYN8 whole entry) above, with T15A, A286T, A290G, R387H, I389V counted along it
T3 sequence (Q9JI35 whole entry): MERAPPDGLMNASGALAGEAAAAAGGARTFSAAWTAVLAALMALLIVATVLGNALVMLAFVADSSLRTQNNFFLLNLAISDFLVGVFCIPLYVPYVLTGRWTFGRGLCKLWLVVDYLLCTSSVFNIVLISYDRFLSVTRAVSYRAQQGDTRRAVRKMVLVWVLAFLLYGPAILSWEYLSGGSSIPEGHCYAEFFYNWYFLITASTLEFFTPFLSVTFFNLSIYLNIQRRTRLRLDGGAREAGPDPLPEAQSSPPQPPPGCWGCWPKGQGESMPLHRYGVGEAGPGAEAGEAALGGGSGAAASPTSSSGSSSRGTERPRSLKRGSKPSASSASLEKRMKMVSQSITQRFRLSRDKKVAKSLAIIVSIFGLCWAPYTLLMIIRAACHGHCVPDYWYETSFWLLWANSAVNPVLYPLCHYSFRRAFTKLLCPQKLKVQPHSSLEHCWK

SMILES	ED50 (mg/kg/p.o.) (H3 receptor [1])	Ki (H3 receptor [2]; [4]) [nM]	Kb (H3 receptor [3]) [nM]	ED50 (H3 receptor [1]; mouse, po, brain tele-methylhistamine level, dose responsible for an half maximal effect) [mg/kg]	Ki (H3 receptor [2]) [nM]
CCN(CC)CCCOc1ccc(C#N)cc1 [Example 43, N-[3-(4-cyanophenoxy)-propyl]-diethylamine]	0.50	95 ± 28	–	–	–
CCCCCNC(=O)OCCCN1CCCCC1 [Example 120, N-Pentyl-3-piperidinopropyl carbamate]	–	–	501	–	–
CC(=O)c1ccc(OCCCN2CCC(C)CC2)cc1 [Example 68, 1-[3-(4-acetylphenoxy)-propyl]-4-methyl-piperidine]	0.5	4.6 ± 2	–	–	–
c1ccc2sc(NCCN3CCCCC3)nc2c1 [Example 131, 2-((2-Piperidinoethyl)amino)benzothiazole]	–	–	251	–	–
CCN(CC)CCCOc1ccc(C(C)=O)cc1 [Example 46, N-[3-(4-acetylphenoxy)-propyl]-diethylamine]	0.44	20 ± 7	–	–	–
N#Cc1ccc(OCCCN2CCCCC2)cc1 [Example 59, 1-[3-(4-cyanophenoxy)propyl]piperidine]	0.20	–	–	0.02	11 ± 2
CCN(CC)CCCOc1ccc(/C(C)=N/O)cc1 [Example 64, 4-(3-diethylaminopropoxy)-acetophenone-oxime]	0.8	2.7 ± 0.9	–	–	–
CC(O)c1ccc(OCCCCCN2CCCC2)cc1 (stereo not drawn) [Example 50, 1-{5-[4-(1-hydroxyethyl)-phenoxy]-pentyl}-pyrrolidine]	1.0	28 ± 7	–	–	–
N#Cc1ccc(OCCCN2CCCCCC2)cc1 [Example 60, N-[3-(4-cyanophenoxy)-propyl]-hexamethyleneimine]	0.64	8.7 ± 2.1	–	–	–
O=[N+]([O-])c1ccc(OCCCCCN2CCCC2)cc1 [Example 18, 1-[5-(4-nitrophenoxy)-pentyl]-pyrrolidine]	1.1	39 ± 11	–	–	–
CCN(CC)CCCCOc1ccc(C#N)cc1 [Example 56, N-[4-(4-cyanophenoxy)-butyl]-diethylamine]	1.1	62 ± 15	–	–	–
CCC(=O)c1ccc(OCCCN2CCCCC2)cc1 [Example 69, 1-[3-(4-propionylphenoxy)-propyl]-piperidine]	0.6	4.7 ± 0.8	–	–	–
CC(=O)c1ccc(OCCCN2CCCC(C)C2)cc1 (stereo not drawn) [Example 66, 1-[3-(4-acetylphenoxy)-propyl]-3-methyl-piperidine]	0.3	3.7 ± 0.5	–	–	–
c1ccc(CCCCCCN2CCCCC2)cc1 [Example 136, N-(6-Phenylhexyl)piperidine]	–	–	316	–	–
CCCCCCC(=O)N1CCC(N2CCCCC2)CC1 [Example 124, N-Heptanoyl-1,4′-bipiperidine]	–	–	398	–	–
